Data published in patent US9346794B1, “Substituted 4-pyridones and their use as inhibitors of neutrophil elastase activity” (Boehringer Ingelheim International GmbH, priority 2012, dated 2016).

Target: Human neutrophil elastase (Homo sapiens (Human), UniProt P08246)
Assay: Human Neutrophil Elastase Assay
Format: biochemical
Conditions: substrate MeOSuc-Ala-Ala-Pro-Val-AMC 250 μM, fluorescence, pH 7.5
Method: Human Neutrophil Elastase Assay
All other materials were of the highest grade commercially available.
The following buffers were used: Compound buffer: 100 mM Tris, 500 mM NaCl, adjusted to pH 7.5; Assay buffer: 100 mM Tris, 500 mM NaCl, adjusted to pH 7.5, containing 0.01% BSA.
Assay conditions: Test compounds were prediluted in DMSO and subsequently in compound buffer (5% DMSO final). […] After inactivation of the enzyme, fluorescence intensities were measured at 380 nm excitation and 460 nm emission wavelengths.
Each plate contains wells with a high value control (DMSO+enzyme+substrate) and wells with a low value control (DMSO+inactivated enzyme+substrate). IC50 values were estimated using a sigmoidal concentration response curve with variable slope. Means of low values were taken as 0%, means of high values as 100%. IC50 values of selected compound in the Neutrophil Elastase assay: […]

Sequence of Human neutrophil elastase (P08246 30-247): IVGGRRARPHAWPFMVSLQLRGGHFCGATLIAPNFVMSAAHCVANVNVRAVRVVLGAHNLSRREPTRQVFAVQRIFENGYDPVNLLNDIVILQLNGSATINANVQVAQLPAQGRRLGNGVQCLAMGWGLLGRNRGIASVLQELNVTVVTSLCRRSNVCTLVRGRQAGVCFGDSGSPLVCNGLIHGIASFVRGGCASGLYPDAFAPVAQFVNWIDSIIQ

Cc1c(-c2cccc(C(F)F)c2)c(=O)c(C(=O)NCc2ccc(S(C)(=O)=NC#N)cc2)cn1C(C)C (single isomer, unassigned) [Example 1A, 5-(3-Difluoromethyl-phenyl)-1-isopropyl-6-methyl-4-oxo-1,4-dihydro-pyridine-3-carboxylic acid 4-(N-cyano-S-methylsulfonimidoyl)-benzylamide]
IC50: 3.1 nM

Cc1noc(-n2cc(C(=O)NCc3ccc(S(C)(=O)=NC#N)cc3)c(=O)c(-c3cccc(C(F)(F)F)c3)c2C)c1C (centres unmarked) [Example 49]
IC50: 7.3 nM

Cc1c(-c2cccc(C(F)(F)F)c2)c(=O)c(C(=O)NCc2ccc(S(C)(=O)=NC#N)c(F)c2)cn1C(C)C (centres unmarked) [Example 13]
IC50: 2.4 nM

CCn1cc(C(=O)NCc2ccc(S(=O)(CC)=NC#N)cc2)c(=O)c(-c2cccc(C(F)(F)F)c2)c1C (single isomer, unassigned) [Example 10B]
IC50: 1.2 nM

Cc1c(-c2cccc(C(F)F)c2)c(=O)c(C(=O)NCc2ccc(S(C)(=O)=NC#N)cc2)cn1-c1ccnn1C (centres unmarked) [Example 7, 5-(3-Difluoromethyl-phenyl)-6-methyl-1-(2-methyl-2H-pyrazol-3-yl)-4-oxo-1,4-dihydro-pyridine-3-carboxylic acid 4-(N-cyano-S-methylsulfonimidoyl)-benzylamide]
IC50: 2.1 nM

Cc1c(-c2cccc(C(F)(F)F)c2)c(=O)c(C(=O)NCc2ccc(S(C)(=O)=NC#N)cc2)cn1C1CCOC1 (centres unmarked) [Example 54]
IC50: 2.3 nM

CCn1cc(C(=O)NCc2ccc(S(C)(=O)=NC#N)cc2)c(=O)c(-c2cccc(C(F)F)c2)c1C (centres unmarked) [Example 5, 5-(3-Difluoromethyl-phenyl)-1-ethyl-6-methyl-4-oxo-1,4-dihydro-pyridine-3-carboxylic acid 4-(N-cyano-S-methylsulfonimidoyl)-benzylamide]
IC50: 2.5 nM

CN=S(=O)(c1ccc(CNC(=O)c2cn(C(C)C)c(C)c(-c3cccc(C(F)(F)F)c3)c2=O)cc1)N(C)C (centres unmarked) [Example 60, 5-(3-Trifluoromethyl-phenyl)-1-isopropyl-6-methyl-4-oxo-1,4-dihydro-pyridine-3-carboxylic acid 4-(N,N,N′-trimethylsulfamimidoyl)-benzylamide]
IC50: 22 nM

Cc1c(-c2cccc(C(F)(F)F)c2)c(=O)c(C(=O)NCc2ccc(S(=O)(=NC#N)C(C)C)cc2)cn1C1CC1 (single isomer, unassigned) [Example 22A]
IC50: 4.5 nM

CCn1cc(C(=O)NCc2ccc(S(C)(=O)=NC#N)cc2)c(=O)c(-c2cccc(C(F)(F)F)c2)c1C (single isomer, unassigned) [Example 4A, 1-Ethyl-6-methyl-4-oxo-5-(3-trifluoromethyl-phenyl)-1,4-dihydro-pyridine-3-carboxylic acid 4-(N-cyano-S-methylsulfonimidoyl)-benzylamide]
IC50: 4.1 nM

Cc1c(-c2cccc(C(F)(F)F)c2)c(=O)c(C(=O)NCc2ccc(S(C)(=O)=NC#N)cc2)cn1-c1ccnn1C (single isomer, unassigned) [Example 47]
IC50: 1.2 nM

Cc1c(-c2ccnc(C(F)(F)F)c2)c(=O)c(C(=O)NCc2ccc(S(C)(=O)=NC#N)cc2)cn1-c1ccccc1 (single isomer, unassigned) [Example 43]
IC50: 13.4 nM

Cc1c(-c2cccc(C(F)F)c2)c(=O)c(C(=O)NCc2ccc(S(C)(=O)=NC#N)cc2)cn1-c1ccccc1 (single isomer, unassigned) [Example 38]
IC50: 3.7 nM

CCS(=O)(=NC#N)c1ccc(CNC(=O)c2cn(C3CC3)c(C)c(-c3cccc(C(F)(F)F)c3)c2=O)cc1 (single isomer, unassigned) [Example 21A]
IC50: 5.2 nM

Cc1c(-c2cccc(C(F)(F)F)c2)c(=O)c(C(=O)NCc2ccc(S(=O)(=NC#N)C(C)C)cc2)cn1-c1ccnn1C (centres unmarked) [Example 19]
IC50: 1 nM

CCn1cc(C(=O)NCc2ccc(S(=O)(CC)=NC#N)cc2)c(=O)c(-c2cccc(C(F)F)c2)c1C (single isomer, unassigned) [Example 29B]
IC50: < 1 nM

Cc1c(-c2ccnc(C(F)(F)F)c2)c(=O)c(C(=O)NCc2ccc(S(C)(=O)=NC#N)cc2)cn1-c1cccnc1 (single isomer, unassigned) [Example 45]
IC50: 14.4 nM

Cc1c(-c2cccc(C(F)(F)F)c2)c(=O)c(C(=O)NCc2ccc(S(C)(=O)=NC#N)cc2)cn1-c1ccnn1C (centres unmarked) [Example 8, 6-Methyl-1-(2-methyl-2H-pyrazol-3-yl)-4-oxo-5-(3-trifluoromethyl-phenyl)-1,4-dihydro-pyridine-3-carboxylic acid 4-(N-cyano-S-methylsulfonimidoyl)-benzylamide]
IC50: 2.4 nM

Cc1c(-c2cccc(C(F)(F)F)c2)c(=O)c(C(=O)NCc2ccc(S(C)(=O)=NC#N)cc2)cn1-c1cncnc1 (single isomer, unassigned) [Example 28]
IC50: 3.3 nM

Cc1c(-c2cccc(C(F)F)c2)c(=O)c(C(=O)NCc2ccc(S(C)(=O)=NC#N)cc2)cn1C(C)C (centres unmarked) [Example 1, 5-(3-Difluoromethyl-phenyl)-1-isopropyl-6-methyl-4-oxo-1,4-dihydro-pyridine-3-carboxylic acid 4-(N-cyano-S-methylsulfonimidoyl)-benzylamide]
IC50: 1.3 nM

Cc1cc(S(C)(=O)=NC#N)ccc1CNC(=O)c1cn(C(C)C)c(C)c(-c2cccc(C(F)(F)F)c2)c1=O (centres unmarked) [Example 15]
IC50: 2.2 nM

CN=S(=O)(c1ccc(CNC(=O)c2cn(C(C)C)c(C)c(-c3cccc(C(F)F)c3)c2=O)cc1)N(C)C (centres unmarked) [Example 61, 5-(3-Difluoromethyl-phenyl)-1-isopropyl-6-methyl-4-oxo-1,4-dihydro-pyridine-3-carboxylic acid 4-(N,N,N′-trimethylsulfamimidoyl)-benzylamide]
IC50: 10.2 nM

Cc1c(-c2cccc(C(F)(F)F)c2)c(=O)c(C(=O)NCc2ccc(S(C)(=O)=NC#N)cc2)cn1C1CC1 (single isomer, unassigned) [Example 20]
IC50: 5.6 nM

Cc1c(-c2cccc(C(F)F)c2)c(=O)c(C(=O)NCc2ccc(S(C)(=O)=NC#N)cc2)cn1C1CCC1 (centres unmarked) [Example 6, 5-(3-Difluoromethyl-phenyl)-1-cyclobutyl-6-methyl-4-oxo-1,4-dihydro-pyridine-3-carboxylic acid 4-(N-cyano-S-methylsulfonimidoyl)-benzylamide]
IC50: 2.4 nM

CCS(=O)(=NC#N)c1ccc(CNC(=O)c2cn(C(C)C)c(C)c(-c3cccc(C(F)(F)F)c3)c2=O)cc1 (centres unmarked) [Example 12]
IC50: < 1 nM

Cc1c(-c2cccc(C(F)(F)F)c2)c(=O)c(C(=O)NCc2ccc(S(C)(=O)=NC#N)cc2)cn1-c1nccs1 (centres unmarked) [Example 56]
IC50: 3.1 nM

CCn1cc(C(=O)NCc2ccc(S(=O)(=NC#N)C(C)C)cc2)c(=O)c(-c2cccc(C(F)F)c2)c1C (single isomer, unassigned) [Example 30B]
IC50: < 1 nM

Cc1c(-c2ccnc(C(F)(F)F)c2)c(=O)c(C(=O)NCc2ccc(S(C)(=O)=NC#N)cc2)cn1C(C)C (racemic) [Example 3, 1-Isopropyl-2-methyl-4-oxo-2′-trifluoromethyl-1,4-dihydro-[3,4′]-bipyridinyl-5-carboxylic acid 4-(N-cyano-S-methylsulfonimidoyl)-benzylamide]
IC50: 4.7 nM

Cc1c(-c2cccc(C(F)F)c2)c(=O)c(C(=O)NCc2ccc(S(C)(=O)=NC#N)cc2)cn1C(C)C (centres unmarked) [Example 1B, 5-(3-Difluoromethyl-phenyl)-1-isopropyl-6-methyl-4-oxo-1,4-dihydro-pyridine-3-carboxylic acid 4-(N-cyano-S-methylsulfonimidoyl)-benzylamide]
IC50: 1.3 nM
